The values below come from US20140243322A1, “BIVALENT BROMODOMAIN LIGANDS, AND METHODS OF USING SAME” (Coferon, Inc., priority 2011, published 2014).

Molecules are shown by their SMILES.

One experiment has as its system MV4-11 cells. As to the kind of experiment: Inhibition of MV4-11 cell proliferation (Cell-Titer Glo). It counts as cell-based. The following applies: Homo sapiens, 72 hours of growth, read-out: GI50 range. The method, then:
Inhibition of MV4-11 Cell Proliferation.
MV4-11 cells (5000 cells in 50 μl volumes) in growth medium containing 10% FBS and 1% Pen/Strep were plated and grown overnight in 96 well plates and treated the next day with 3-fold dilutions of test compounds or with DMSO vehicle. After 72 hours of growth, 30 ul of Cell-Titer Glo reagent (Promega) was added to the wells and the plates incubated for 30 minutes. Luminescence was measured on a Spectramax M5 plate reader and GI50 values were calculated for each test compound.

The next experiment relates to Myc mRNA. Briefly: Inhibition of Myc expression (Myc mRNA) in MV4-11 cells. It counts as cell-based. The following applies: Homo sapiens, 4 hours of treatment, read-out: EC50 range, Myc mRNA normalized to GAPDH mRNA. An excerpt: Inhibition of Myc Expression.

For `CCNC(=O)C[C@@H]1N=C(c2ccc(Cl)cc2)c2cc(OCCNC(=O)C[C@@H]3N=C(c4ccc(Cl)cc4)c4cc(OC)ccc4-n4c(C)nnc43)ccc2-n2c(C)nnc21` [BRD-B-01, N-(2-(((S)-6-(4-chlorophenyl)-4-(2-(ethylamino)-2-oxoethyl)-1-methyl-4H-benzo[f][1,2,4]triazolo[4,3-a][1,4]diazepin-8-yl)oxy)ethyl)-2-((S)-6-(4-chlorophenyl)-8-methoxy-1-methyl-4H-benzo[f][1,2,4]triazolo[4,3-a][1,4]diazepin-4-yl)acetamide], in the experiment on MV4-11 cells, the concentration for 50% growth inhibition (GI50) lay within 100 to 30000 nM.

As for `CCNC(=O)C[C@@H]1N=C(c2ccc(Cl)cc2)c2cc(OCCOCCOCCNC(=O)C[C@@H]3N=C(c4ccc(Cl)cc4)c4cc(OC)ccc4-n4c(C)nnc43)ccc2-n2c(C)nnc21` [BRD-B-04, N-(2-(2-(2-(((S)-6-(4-chlorophenyl)-4-(2-(ethylamino)-2-oxoethyl)-1-methyl-4H-benzo[f][1,2,4]triazolo[4,3-a][1,4]diazepin-8-yl)oxy)ethoxy)ethoxy)ethyl)-2-((S)-6-(4-chlorophenyl)-8-methoxy-1-methyl-4H-benzo[f][1,2,4]triazolo[4,3-a][1,4]diazepin-4-yl)acetamide], in the experiment with Myc mRNA, the half-maximal effective concentration (EC50) was in the range of 0.1 to 30 nM. Also, the GI50 in the experiment on MV4-11 cells was 0.1 to 30 nM.

As to `CCNC(=O)C[C@@H]1N=C(c2ccc(Cl)cc2)c2cc(OCCOCCOCCOCCNC(=O)C[C@@H]3N=C(c4ccc(Cl)cc4)c4cc(OC)ccc4-n4c(C)nnc43)ccc2-n2c(C)nnc21` [BRD-B-05, N-(2-(2-(2-(2-(((S)-6-(4-chlorophenyl)-4-(2-(ethylamino)-2-oxoethyl)-1-methyl-4H-benzo[f][1,2,4]triazolo[4,3-a][1,4]diazepin-8-yl)oxy)ethoxy)ethoxy)ethoxy)ethyl)-2-((S)-6-(4-chlorophenyl)-8-methoxy-1-methyl-4H-benzo[f][1,2,4]triazolo[4,3-a][1,4]diazepin-4-yl)acetamide], the EC50 with Myc mRNA fell in the range of 30 to 100 nM. Besides, in the experiment on MV4-11 cells, the 50% growth inhibitory concentration (GI50) lay in the range of 0.1 to 30 nM.

Take `COc1ccc2c(c1)C(c1ccc(Cl)cc1)=N[C@@H](CC(=O)NCCNC(=O)NCCNC(=O)C[C@@H]1N=C(c3ccc(Cl)cc3)c3cc(OC)ccc3-n3c(C)nnc31)c1nnc(C)n1-2` [BRD-B-06, (S)—N,N′-((carbonylbis(azanediyl))bis(ethane-2,1-diyl))bis(2-((S)-6-(4-chlorophenyl)-8-methoxy-1-methyl-4H-benzo[f][1,2,4]triazolo[4,3-a][1,4]diazepin-4-yl)acetamide)]: in the experiment on Myc mRNA, the EC50 is 100 to 30000 nM. The 50% growth inhibitory concentration (GI50) in the experiment on MV4-11 cells was 100 to 30000 nM.

`COc1ccc2c(c1)C(c1ccc(Cl)cc1)=N[C@@H](CC(=O)NCCNC(=O)CNC(=O)C[C@@H]1N=C(c3ccc(Cl)cc3)c3cc(OC)ccc3-n3c(C)nnc31)c1nnc(C)n1-2` [BRD-B-07, 2-((S)-6-(4-chlorophenyl)-8-methoxy-1-methyl-4H-benzo[f][1,2,4]triazolo[4,3-a][1,4]diazepin-4-yl)-N-(2-(2-(2-((S)-6-(4-chlorophenyl)-8-methoxy-1-methyl-4H-benzo[f][1,2,4]triazolo[4,3-a][1,4]diazepin-4-yl)acetamido)acetamido)ethyl)acetamide]: the concentration giving a half-maximal response (EC50) with Myc mRNA was 100 to 30000 nM. In the experiment on MV4-11 cells, the GI50 lay in the range of 100 to 30000 nM.

For `COc1ccc2c(c1)C(c1ccc(Cl)cc1)=N[C@@H](CC(=O)NCCNC(=O)CNC(=O)CNC(=O)C[C@@H]1N=C(c3ccc(Cl)cc3)c3cc(OC)ccc3-n3c(C)nnc31)c1nnc(C)n1-2` [BRD-B-08, 2-((S)-6-(4-chlorophenyl)-8-methoxy-1-methyl-4H-benzo[f][1,2,4]triazolo[4,3-a][1,4]diazepin-4-yl)-N-(2-(2-(2-(2-((S)-6-(4-chlorophenyl)-8-methoxy-1-methyl-4H-benzo[f][1,2,4]triazolo[4,3-a][1,4]diazepin-4-yl)acetamido)acetamido)acetamido)ethyl)acetamide], the EC50 in the experiment with Myc mRNA was 100 to 30000 nM. The GI50 with MV4-11 cells was in the range of 100 to 30000 nM.

In the case of `COc1ccc2c(c1)C(c1ccc(Cl)cc1)=N[C@@H](CC(=O)NCCNC(=O)CNC(=O)NCCNC(=O)C[C@@H]1N=C(c3ccc(Cl)cc3)c3cc(OC)ccc3-n3c(C)nnc31)c1nnc(C)n1-2` [BRD-B-09], the 50% effective concentration (EC50) with Myc mRNA was 100 to 30000 nM. In the experiment with MV4-11 cells, the GI50 is 100 to 30000 nM.

As to `COc1ccc2c(c1)C(c1ccc(Cl)cc1)=N[C@@H](CC(=O)NCc1cccc(C3CCN(C(=O)C[C@@H]4N=C(c5ccc(Cl)cc5)c5cc(OC)ccc5-n5c(C)nnc54)CC3)c1)c1nnc(C)n1-2` [BRD-B-10, 2-((S)-6-(4-chlorophenyl)-8-methoxy-1-methyl-4H-benzo[f][1,2,4]triazolo[4,3-a][1,4]diazepin-4-yl)-N-(3-(1-(2-((S)-6-(4-chlorophenyl)-8-methoxy-1-methyl-4H-benzo[f][1,2,4]triazolo[4,3-a][1,4]diazepin-4-yl)acetyl)piperidin-4-yl)benzyl)acetamide], in the experiment on MV4-11 cells, the concentration for 50% growth inhibition (GI50) is 100 to 30000 nM.

With `COc1ccc2c(c1)C(c1ccc(Cl)cc1)=N[C@@H](CC(=O)NCC(=O)NCCNC(=O)CNC(=O)C[C@@H]1N=C(c3ccc(Cl)cc3)c3cc(OC)ccc3-n3c(C)nnc31)c1nnc(C)n1-2` [BRD-B-11, (S)—N,N′-(ethane-1,2-diyl)bis(2-(2-((S)-6-(4-chlorophenyl)-8-methoxy-1-methyl-4H-benzo[f][1,2,4]triazolo[4,3-a][1,4]diazepin-4-yl)acetamido)acetamide)], the EC50 with Myc mRNA lay within 100 to 30000 nM. Also, the GI50 in the experiment on MV4-11 cells is 100 to 30000 nM.

In the case of `CCNC(=O)C[C@@H]1N=C(c2ccc(Cl)cc2)c2cc(OCCOCCOCCOCCOCCNC(=O)C[C@@H]3N=C(c4ccc(Cl)cc4)c4cc(OC)ccc4-n4c(C)nnc43)ccc2-n2c(C)nnc21` [BRD-B-12, N-(14-(((4S)-6-(4-chlorophenyl)-4-(2-(ethylamino)-2-oxoethyl)-1-methyl-4H-benzo[f][1,2,4]triazolo[4,3-a][1,4]diazepin-8-yl)oxy)-3,6,9,12-tetraoxatetradecyl)-2-((4S)-6-(4-chlorophenyl)-8-methoxy-1-methyl-4H-benzo[f][1,2,4]triazolo[4,3-a][1,4]diazepin-4-yl)acetamide], the concentration for a half-maximal effect (EC50) with Myc mRNA is 30 to 100 nM. Also, the concentration for 50% growth inhibition (GI50) with MV4-11 cells fell in the range of 0.1 to 30 nM.

As to `CCNC(=O)C[C@@H]1N=C(c2ccc(Cl)cc2)c2cc(OCCOCCOCCOCCOCCOCCNC(=O)C[C@@H]3N=C(c4ccc(Cl)cc4)c4cc(OC)ccc4-n4c(C)nnc43)ccc2-n2c(C)nnc21` [BRD-B-13, N-(17-(((4S)-6-(4-chlorophenyl)-4-(2-(ethylamino)-2-oxoethyl)-1-methyl-4H-benzo[f][1,2,4]triazolo[4,3-a][1,4]diazepin-8-yl)oxy)-3,6,9,12,15-pentaoxaheptadecyl)-2-((4S)-6-(4-chlorophenyl)-8-methoxy-1-methyl-4H-benzo[f][1,2,4]triazolo[4,3-a][1,4]diazepin-4-yl)acetamide], in the experiment with Myc mRNA, the EC50 was 100 to 30000 nM. In addition, in the experiment on MV4-11 cells, the GI50 is 0.1 to 30 nM.

Regarding `COc1ccc2c(c1)C(c1ccc(Cl)cc1)=N[C@@H](CC(=O)NCCOCCOCCOCCOCCNC(=O)C[C@@H]1N=C(c3ccc(Cl)cc3)c3cc(OC)ccc3-n3c(C)nnc31)c1nnc(C)n1-2` [BRD-B-16, (S)—N,N′-(3,6,9,12-tetraoxatetradecane-1,14-diyl)bis(2-((S)-6-(4-chlorophenyl)-8-methoxy-1-methyl-4H-benzo[f][1,2,4]triazolo[4,3-a][1,4]diazepin-4-yl)acetamide)], the EC50 in the experiment on Myc mRNA lay in the range of 30 to 100 nM. Also, in the experiment on MV4-11 cells, the concentration for 50% growth inhibition (GI50) is 30 to 100 nM.

Regarding `COc1ccc2c(c1)C(c1ccc(Cl)cc1)=N[C@@H](CC(=O)NCCOCCOCCOCCOCCOCCNC(=O)C[C@@H]1N=C(c3ccc(Cl)cc3)c3cc(OC)ccc3-n3c(C)nnc31)c1nnc(C)n1-2` [BRD-B-17, (S)—N,N′-(3,6,9,12,15-pentaoxaheptadecane-1,17-diyl)bis(2-((S)-6-(4-chlorophenyl)-8-methoxy-1-methyl-4H-benzo[f][1,2,4]triazolo[4,3-a][1,4]diazepin-4-yl)acetamide)], the 50% effective concentration (EC50) in the experiment with Myc mRNA lay in the range of 100 to 30000 nM. Moreover, the concentration for 50% growth inhibition (GI50) with MV4-11 cells was 30 to 100 nM.

On to `COc1ccc2c(c1)C(c1ccc(Cl)cc1)=N[C@@H](CC(=O)NCCOCCOCCOCCOCCOCCOCCNC(=O)C[C@@H]1N=C(c3ccc(Cl)cc3)c3cc(OC)ccc3-n3c(C)nnc31)c1nnc(C)n1-2` [BRD-B-18, (S)—N,N′-(3,6,9,12,15,18-hexaoxaicosane-1,20-diyl)bis(2-((S)-6-(4-chlorophenyl)-8-methoxy-1-methyl-4H-benzo[f][1,2,4]triazolo[4,3-a][1,4]diazepin-4-yl)acetamide)], for which the EC50 with Myc mRNA was in the range of 30 to 100 nM. The 50% growth inhibitory concentration (GI50) in the experiment with MV4-11 cells fell in the range of 0.1 to 30 nM.

Take `COc1ccc2c(c1)C(c1ccc(Cl)cc1)=N[C@@H](CC(=O)NCCOCCOCCOCCOCCOCCOCCOCCNC(=O)C[C@@H]1N=C(c3ccc(Cl)cc3)c3cc(OC)ccc3-n3c(C)nnc31)c1nnc(C)n1-2` [BRD-B-19, (S)—N,N′-(3,6,9,12,15,18,21-heptaoxatricosane-1,23-diyl)bis(2-((S)-6-(4-chlorophenyl)-8-methoxy-1-methyl-4H-benzo[f][1,2,4]triazolo[4,3-a][1,4]diazepin-4-yl)acetamide)]: in the experiment with Myc mRNA, the concentration giving a half-maximal response (EC50) lay in the range of 100 to 30000 nM. The GI50 in the experiment on MV4-11 cells is 0.1 to 30 nM.

Consider `CCNC(=O)C[C@@H]1N=C(c2ccc(Cl)cc2)c2cc(OCCOCCOCCOCCOCCOCCOCCOCCOCCOCCNC(=O)C[C@@H]3N=C(c4ccc(Cl)cc4)c4cc(OC)ccc4-n4c(C)nnc43)ccc2-n2c(C)nnc21` [BRD-B-21, N-(29-(((4S)-6-(4-chlorophenyl)-4-(2-(ethylamino)-2-oxoethyl)-1-methyl-4H-benzo[f][1,2,4]triazolo[4,3-a][1,4]diazepin-8-yl)oxy)-3,6,9,12,15,18,21,24,27-nonaoxanonacosyl)-2-((4S)-6-(4-chlorophenyl)-8-methoxy-1-methyl-4H-benzo[f][1,2,4]triazolo[4,3-a][1,4]diazepin-4-yl)acetamide], for which, in the experiment with Myc mRNA, the EC50 fell in the range of 100 to 30000 nM.

As to `Cc1ccc(-c2c(C)noc2C)cc1S(=O)(=O)NCCOCCOCCNS(=O)(=O)c1cc(-c2c(C)noc2C)ccc1C` [BRD-B-76, N,N′-((ethane-1,2-diylbis(oxy))bis(ethane-2,1-diyl))bis(5-(3,5-dimethylisoxazol-4-yl)-2-methylbenzenesulfonamide)], in the experiment on Myc mRNA, the concentration for a half-maximal effect (EC50) lay in the range of 100 to 30000 nM.

One may read the GI50 as the concentration giving 50% growth inhibition. As a reminder, the EC50 is the concentration giving half of the maximal effect.
